What was measured:
Assay in all cases: relative viability (nuclei count vs DMSO), 5 days (fraction); higher = more cells survive
EMC-BAC-2 = system: EMC-BAC-2
Procedure, shortened: (§1)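 A single step with final 0.05% Triton X-100, 1% formaldehyde and 1 ug/ml Hoechst fixed the cells and stained nuclei 5 days after treatment. Lung cancer cell lines in 1536-well plates had been treated by pin tool the day after seeding with one drug alone or a fixed anchor-drug dose plus five library-drug doses (not always all listed) in √10 steps, and nuclei were counted on 4× images. Relative viability is the ratio of nuclei in treated wells to nuclei in vehicle wells, taken as the median of duplicate plates.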

EPLC-272H = system: EPLC-272H
Procedure, shortened: as §1

H3255 = system: H3255
Procedure, shortened: as §1

HCC-44 = system: HCC-44
Procedure, shortened: as §1

HCC-827 = system: HCC-827
Procedure, shortened: as §1

LCLC-103H = system: LCLC-103H
Procedure, shortened: as §1

LCLC-97TM1 = system: LCLC-97TM1
Procedure, shortened: as §1

NCI-H1355 = system: NCI-H1355
Procedure, shortened: as §1

NCI-H1395 = system: NCI-H1395
Procedure, shortened: as §1

NCI-H1563 = system: NCI-H1563
Procedure, shortened: as §1

NCI-H1651 = system: NCI-H1651
Procedure, shortened: as §1

NCI-H1793 = system: NCI-H1793
Procedure, shortened: as §1

NCI-H1944 = system: NCI-H1944
Procedure, shortened: as §1

NCI-H2023 = system: NCI-H2023
Procedure, shortened: as §1

NCI-H2085 = system: NCI-H2085
Procedure, shortened: as §1

NCI-H2087 = system: NCI-H2087
Procedure, shortened: as §1

NCI-H2405 = system: NCI-H2405
Procedure, shortened: as §1

NCI-H322M = system: NCI-H322M
Procedure, shortened: as §1

NCI-H520 = system: NCI-H520
Procedure, shortened: as §1

NCI-H650 = system: NCI-H650
Procedure, shortened: as §1

SK-MES-1 = system: SK-MES-1
Procedure, shortened: as §1

UMC-11 = system: UMC-11
Procedure, shortened: as §1

Work on `C=C1C(=O)O[C@@H](CCCCCCCC)[C@@H]1C(=O)O` [C-75] + C[C@]1(O)C[C@@H](c2nc(-c3ccc4ccc(-c5ccccc5)nc4c3)c3c(N)nccn32)C1 [Linsitinib] (partner 1 µM) yielded a relative viability (EMC-BAC-2; first compound 0.08 µM) of 0.791, a relative viability (EMC-BAC-2; first compound 0.253 µM) of 0.754 and a relative viability (EMC-BAC-2; first compound 0.8 µM) of 0.831. It also gave a relative viability (EMC-BAC-2; first compound 2.53 µM) of 0.761, a relative viability (EMC-BAC-2; first compound 8 µM) of 0.831 and a relative viability (EPLC-272H; first compound 0.08 µM) of 1.05. It also gave a relative viability (EPLC-272H; first compound 0.253 µM) of 1.23, a relative viability (EPLC-272H; first compound 0.8 µM) of 1.07 and a relative viability (EPLC-272H; first compound 2.53 µM) of 0.976. The relative viability (EPLC-272H; first compound 8 µM) was 1.11, the relative viability (H3255; first compound 0.08 µM) was 0.868 and the relative viability (H3255; first compound 0.253 µM) was 1.13. It also gave a relative viability (H3255; first compound 0.8 µM) of 1.01, a relative viability (H3255; first compound 2.53 µM) of 0.895 and a relative viability (H3255; first compound 8 µM) of 1.16. It also gave a relative viability (HCC-44; first compound 0.08 µM) of 0.598, a relative viability (HCC-44; first compound 0.253 µM) of 0.633 and a relative viability (HCC-44; first compound 0.8 µM) of 0.618. It also gave a relative viability (HCC-44; first compound 2.53 µM) of 0.453, a relative viability (HCC-44; first compound 8 µM) of 0.667 and a relative viability (HCC-827; first compound 0.08 µM) of 0.884. It also gave a relative viability (HCC-827; first compound 0.253 µM) of 0.92, a relative viability (HCC-827; first compound 0.8 µM) of 1 and a relative viability (HCC-827; first compound 2.53 µM) of 0.972. The relative viability (HCC-827; first compound 8 µM) was 0.923, the relative viability (LCLC-103H; first compound 0.08 µM) was 0.999 and the relative viability (LCLC-103H; first compound 0.253 µM) was 1.29. The relative viability (LCLC-103H; first compound 0.8 µM) was 1.08, the relative viability (LCLC-103H; first compound 2.53 µM) was 0.862 and the relative viability (LCLC-103H; first compound 8 µM) was 1.09. It also gave a relative viability (LCLC-97TM1; first compound 0.08 µM) of 0.2, a relative viability (LCLC-97TM1; first compound 0.253 µM) of 0.309 and a relative viability (LCLC-97TM1; first compound 0.8 µM) of 0.177. For the same compound, the relative viability (LCLC-97TM1; first compound 2.53 µM) was 0.105, the relative viability (LCLC-97TM1; first compound 8 µM) was 0.18 and the relative viability (NCI-H1355; first compound 0.08 µM) was 0.849. For the same compound, the relative viability (NCI-H1355; first compound 0.253 µM) was 0.803, the relative viability (NCI-H1355; first compound 0.8 µM) was 0.806 and the relative viability (NCI-H1355; first compound 2.53 µM) was 0.805. For the same compound, the relative viability (NCI-H1355; first compound 8 µM) was 0.825, the relative viability (NCI-H1395; first compound 0.08 µM) was 1.11 and the relative viability (NCI-H1395; first compound 0.253 µM) was 1.05. For the same compound, the relative viability (NCI-H1395; first compound 0.8 µM) was 1.12, the relative viability (NCI-H1395; first compound 2.53 µM) was 1.11 and the relative viability (NCI-H1395; first compound 8 µM) was 1.25. The relative viability (NCI-H1563; first compound 0.08 µM) was 1.24, the relative viability (NCI-H1563; first compound 0.253 µM) was 1.23 and the relative viability (NCI-H1563; first compound 0.8 µM) was 1.14. The relative viability (NCI-H1563; first compound 2.53 µM) was 1.28, the relative viability (NCI-H1563; first compound 8 µM) was 1.18 and the relative viability (NCI-H1651; first compound 0.08 µM) was 1.06. For the same compound, the relative viability (NCI-H1651; first compound 0.253 µM) was 1.07, the relative viability (NCI-H1651; first compound 0.8 µM) was 1.08 and the relative viability (NCI-H1651; first compound 2.53 µM) was 0.975. It also gave a relative viability (NCI-H1651; first compound 8 µM) of 0.964, a relative viability (NCI-H1793; first compound 0.08 µM) of 0.775 and a relative viability (NCI-H1793; first compound 0.253 µM) of 1.18. For the same compound, the relative viability (NCI-H1793; first compound 0.8 µM) was 0.698, the relative viability (NCI-H1793; first compound 2.53 µM) was 0.658 and the relative viability (NCI-H1793; first compound 8 µM) was 0.942. It also gave a relative viability (NCI-H1944; first compound 0.08 µM) of 1.13, a relative viability (NCI-H1944; first compound 0.253 µM) of 0.961 and a relative viability (NCI-H1944; first compound 0.8 µM) of 1.26. For the same compound, the relative viability (NCI-H1944; first compound 8 µM) was 1.19, the relative viability (NCI-H2023; first compound 0.08 µM) was 0.701 and the relative viability (NCI-H2023; first compound 0.253 µM) was 0.824. It also gave a relative viability (NCI-H2023; first compound 0.8 µM) of 0.473, a relative viability (NCI-H2023; first compound 2.53 µM) of 0.658 and a relative viability (NCI-H2023; first compound 8 µM) of 0.753. It also gave a relative viability (NCI-H2085; first compound 0.08 µM) of 0.935, a relative viability (NCI-H2085; first compound 0.253 µM) of 0.801 and a relative viability (NCI-H2085; first compound 0.8 µM) of 0.88. The relative viability (NCI-H2085; first compound 2.53 µM) was 0.806, the relative viability (NCI-H2085; first compound 8 µM) was 0.792 and the relative viability (NCI-H2087; first compound 0.08 µM) was 1.24. For the same compound, the relative viability (NCI-H2087; first compound 0.253 µM) was 0.898, the relative viability (NCI-H2087; first compound 0.8 µM) was 0.975 and the relative viability (NCI-H2087; first compound 2.53 µM) was 0.867. The relative viability (NCI-H2087; first compound 8 µM) was 1, the relative viability (NCI-H2405; first compound 0.08 µM) was 0.882 and the relative viability (NCI-H2405; first compound 0.253 µM) was 0.728. The relative viability (NCI-H2405; first compound 0.8 µM) was 0.872, the relative viability (NCI-H2405; first compound 2.53 µM) was 0.967 and the relative viability (NCI-H2405; first compound 8 µM) was 0.989. It also gave a relative viability (NCI-H322M; first compound 0.08 µM) of 0.887, a relative viability (NCI-H322M; first compound 0.253 µM) of 1.05 and a relative viability (NCI-H322M; first compound 0.8 µM) of 0.999. The relative viability (NCI-H322M; first compound 2.53 µM) was 0.816, the relative viability (NCI-H322M; first compound 8 µM) was 1.08 and the relative viability (NCI-H520; first compound 0.08 µM) was 1.1. It also gave a relative viability (NCI-H520; first compound 0.253 µM) of 1.28, a relative viability (NCI-H520; first compound 0.8 µM) of 0.904 and a relative viability (NCI-H520; first compound 2.53 µM) of 0.906. For the same compound, the relative viability (NCI-H520; first compound 8 µM) was 0.825, the relative viability (NCI-H650; first compound 0.08 µM) was 0.922 and the relative viability (NCI-H650; first compound 0.253 µM) was 0.801. For the same compound, the relative viability (NCI-H650; first compound 0.8 µM) was 0.608, the relative viability (NCI-H650; first compound 2.53 µM) was 0.718 and the relative viability (NCI-H650; first compound 8 µM) was 0.766. The relative viability (SK-MES-1; first compound 0.08 µM) was 1.1, the relative viability (SK-MES-1; first compound 0.253 µM) was 0.935 and the relative viability (SK-MES-1; first compound 0.8 µM) was 1.02. For the same compound, the relative viability (SK-MES-1; first compound 8 µM) was 1.05, the relative viability (UMC-11; first compound 0.08 µM) was 0.91 and the relative viability (UMC-11; first compound 0.253 µM) was 1.09. For the same compound, the relative viability (UMC-11; first compound 0.8 µM) was 1.01, the relative viability (UMC-11; first compound 2.53 µM) was 0.821 and the relative viability (UMC-11; first compound 8 µM) was 0.891.

Reference: the supplement of paper PMC10307832
